Source: the supplement of paper PMC10307832

Assays:
Assay in all cases: relative viability (nuclei count vs DMSO), 5 days (fraction); higher = more cells survive
[1] = compound: CCOC1=CC=CC=C1N=NC2=C(NN(C2=O)C3=NC(=CS3)C4=CC=CC=C4)C [BAM7] + NC(=O)Nc1cc(-c2cccc(F)c2)sc1C(=O)N[C@H]1CCCNC1 [AZD7762] (partner 0.2 µM)
Outline: (§1)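 Relative viability was taken as the ratio of nuclei in treated wells to nuclei in vehicle wells. Lung cancer cell lines in 1536-well plates received compounds by pin tool one day after seeding, either one drug alone or a fixed anchor-drug dose plus five library-drug doses (not always all listed) in √10 steps. Nuclei were counted on 4× images after 5 days of treatment, and values are medians of duplicate plates.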

[2] = compound: CCn1c(-c2nonc2N)nc2c(C#CC(C)(C)O)ncc(OC[C@H]3CCCNC3)c21 + Nc1ncn([C@H]2C[C@H](O)[C@@H](CO)O2)c(=O)n1 [Decitabine] (partner 2 µM)
Outline: as §1

[3] = compound: CCOC1=CC=CC=C1N=NC2=C(NN(C2=O)C3=NC(=CS3)C4=CC=CC=C4)C [BAM7] + CC(=O)c1c(C)c2cnc(Nc3ccc(N4CCNCC4)cn3)nc2n(C2CCCC2)c1=O [Palbociclib] (partner 0.5 µM)
Outline: as §1

[4] = compound: CCn1c(-c2nonc2N)nc2c(C#CC(C)(C)O)ncc(OC[C@H]3CCCNC3)c21 + C[C@@H](Oc1cc(-c2cnn(C3CCNCC3)c2)cnc1N)c1c(Cl)ccc(F)c1Cl [Crizotinib] (partner 1 µM)
Outline: as §1

Cell Line	relative viability ([1]; first compound 0.5 µM)	relative viability ([1]; first compound 5 µM)	relative viability ([1]; first compound 15.81 µM)	relative viability ([1]; first compound 50 µM)	relative viability ([2]; first compound 0.01 µM)	relative viability ([2]; first compound 0.03162 µM)	relative viability ([2]; first compound 0.1 µM)	relative viability ([2]; first compound 0.3162 µM)	relative viability ([2]; first compound 1 µM)	relative viability ([3]; first compound 0.5 µM)	relative viability ([3]; first compound 5 µM)	relative viability ([3]; first compound 15.81 µM)	relative viability ([3]; first compound 50 µM)	relative viability ([4]; first compound 0.01 µM)	relative viability ([4]; first compound 0.03162 µM)	relative viability ([4]; first compound 0.1 µM)	relative viability ([4]; first compound 0.3162 µM)	relative viability ([4]; first compound 1 µM)
NCI-H522	0.748	0.967	0.851	0.851	0.656	0.675	0.682	0.679	0.716	1.19	0.986	0.649	1.16					
NCI-H2228										0.853	0.966	1.19	1.07	0.552	0.56	0.476	0.378	0.33
SK-MES-1					0.329	0.397	0.399	0.353	0.378	0.332	0.35	0.308	0.272	0.989	0.982	0.963	0.909	0.982
SW 1573					0.462	0.388	0.448	0.42	0.337	0.433	0.396	0.356	0.391	0.699	0.767	0.734	0.762	0.704
NCI-H661					0.504	0.591	0.513	0.561	0.543	0.443	0.433	0.422	0.422	1.03	0.984	1.08	0.992	0.989
Calu-6														0.758	0.814	0.868	0.756	0.786
CAL-12T	0.589	0.714	0.557	0.609						0.593	0.372	0.419	0.513	0.8	0.653	0.546	0.738	0.84
NCI-H1650					0.355	0.455	0.522	0.208	0.442	0.351	0.268	0.304	0.456	0.964	1.06	0.924	0.971	1.07
NCI-H1299														0.935	0.927	0.948	0.919	0.997
EBC-1														0.161	0.194	0.223	0.159	0.197
NCI-H2342	0.53	0.61	0.431	0.388	0.747	0.692	0.773	0.667	0.625	0.482	0.498	0.531	0.539					
COR-L23					0.429	0.353	0.348	0.352	0.38	0.284	0.315	0.294	0.275	0.612	0.724	0.56	0.662	0.604
COR-L 105					0.651	0.681	0.651	0.749	1.58	0.407	0.387	0.373	0.41	0.692	1.05	0.731	0.731	0.875
NCI-H596	1.27	1.12	0.92	1.05	1.05		0.961	0.929	1.03					0.834	1.08	0.996	0.915	0.948
NCI-H2023					0.207	0.202	0.221	0.245	0.236	0.375	0.316	0.293	0.327	0.683	0.67	0.557	0.583	0.549
NCI-H1793	0.544	0.341	0.428	0.426	0.478	0.522		0.534	0.503	0.252	0.291	0.251	0.34					
NCI-H520					0.483	0.47	0.387	0.359	0.332	0.262	0.233	0.235	0.26	0.732	1.02	0.616	0.644	0.452
A549					0.207	0.202	0.292	0.27	0.215					0.665	0.706	0.718	0.666	0.63
NCI-H1563														0.853	0.923	0.799	0.772	0.81
NCI-H1395	0.395	0.407	0.394	0.421	0.819	0.735	0.742	0.583	0.677	0.578	0.627	0.606	0.614					
NCI-H2009					0.35	0.469	0.354	0.342	0.39	0.189	0.189	0.228	0.29	0.941	1.03	1.09	1.02	1.07
SW 900		0.592		0.691	0.425	0.442	0.502	0.484	0.42		0.543		0.596					
IA-LM														0.824	0.601	0.862	0.703	0.323
SK-LU-1					0.669	0.639	0.75	0.611	0.574	0.399	0.405	0.43	0.453	1.11	0.817	0.925	0.978	0.987
NCI-H1703	0.14	0.115	0.122	0.132										0.465	0.656	0.59	0.482	0.376
